Values quoted from earlier work in article PMC10667676, “Pharmacokinetics and bioequivalence of sunitinib and Sutent® in Chinese healthy subjects: an open-label, randomized, crossover study” (Frontiers in Pharmacology, 2023).

Assays:
[1] = design: method as in Bello and e t al., 2006; conditions: healthy subjects, high-fat, high-calorie diet, oral 50 mg; ref Bello and e t al., 2006
CYP enzymes = conditions: ref Zhou and Gallo, 2010; Kassem et al., 2012a

## CCN(CC)CCNC(=O)c1c(C)[nH]c(/C=C2\C(=O)Nc3ccc(F)cc32)c1C [Sunitinib]
Healthy subjects' plasma, no reference given
  Elimination half-life: 40 to 60 h
Primary route of elimination, ref Adams and Leggas, 2007
  Elimination through the feces, share of total administered dose: 61%
Ref Adams and Leggas, 2007
  Renal excretion, share of total administered dose: 16%
Ref Bello and e t al., 2006
  Effect of food consumption on bioavailability: unaltered
[1]
  AUC0-∞: 1489 (1276–1736) ng*h/mL
  AUC0–t: 1476 (1264–1724) ng*h/mL
  Cmax: 25.1 (21.1–29.7) ng/mL
  Tmax: 8.03 h
  t1/2: 59.1 h
CYP enzymes
  Inhibition or induction of CYP enzymes: unlikely to significantly inhibit or induce
